Measured values published in patent US20040224954A1, “Substituted 1H-quinoxalin-2-one compounds and substituted 4-aryl- and 4-heteroarylcyclohexane compounds” (priority 2001, published 2004).
Counter-ions that a name gives are not always drawn.

Columns and labels:
Male NMRI mice = test: phenylquinone-induced writhing in mice (analgesic efficacy); assay type: in vivo; settings: 10 mg/kg i.v., phenylquinone i.p. 10 minutes after compound, writhing counted 5-20 minutes after phenylquinone
Procedure: The investigation into analgesic efficacy was performed by phenylquinone-induced writhing in mice (modified after: I. C. Hendershot, J. Forsaith, J. Pharmacol. Exp. There. 125, 237-240 (1959)). The corresponding literature description is hereby introduced as a reference and is deemed to be part of the disclosure.
Male NMRI mice weighing from 25 to 30 g were used for this purpose. Groups of 10 animals per substance dose received, 10 minutes after intravenous administration of the compounds tested, 0.3 ml/mouse of a 0.02% aqueous solution of phenylquinone (phenylbenzoquinone, Sigma, Deisenhofen; solution prepared with addition of 5% of ethanol and stored in a water bath at 45° C.) administered intraperitoneally. The animals were placed individually in observation cages. A push button counter was used to record the number of pain-induced stretching movements (writhing reactions=straightening of the torso with stretching of the rear extremities) for 5-20 minutes after phenylquinone administration. The control was provided by animals which received only physiological common salt solution.
The compounds were tested at the standard dosage of 10 mg/kg. Inhibition of the writhing reactions by a substance was calculated according to the following formula: [formula]
The in-depth investigation into analgesic efficacy was performed using phenylquinone-induced writhing in mice, as described above.

Compound | % inhibition of writhing reactions (Male NMRI mice) | melting point
COc1cccc(C2(O)CCC(NC(=O)c3nc4cc(C)c(C)cc4[nH]c3=O)CC2CN(C)C)c1 (centres unmarked) [Example 1, 6,7-dimethyl-3-oxo-3,4-dihydroquinoxaline 2-carboxylic acid [3′-(N,N-dimethylaminomethyl)-4′-hydroxy-4′-(m-methoxyphenyl)-cyclohexyl]amide hydrochloride] | 72% | –
COc1cccc(C2(O)CCC(NC(=O)c3nc4cc(Cl)c(Cl)cc4[nH]c3=O)CC2CN(C)C)c1 (centres unmarked) [Example 2, 6,7-dichloro-3-oxo-3,4-dihydroquinoxaline 2-carboxylic acid [3′-(N,N-dimethylaminomethyl)-4′-hydroxy-4′-(m-methoxyphenyl)-cyclohexyl]amide] | 55% | –
COc1cccc(C2(O)CCC(OC(=O)c3nc4cc(C)c(C)cc4[nH]c3=O)CC2CN(C)C)c1 (centres unmarked) [Example 3, 6,7-dimethyl-3-oxo-3,4-dihydroquinoxaline 2-carboxylic acid [3′-(N,N-dimethylaminomethyl)-4′-hydroxy-4′-(m-methoxyphenyl)-cyclohexyl] ester] | 90% | –
COc1cccc(C2(O)CCC(OC(=O)c3nc4cc(Cl)c(Cl)cc4[nH]c3=O)CC2CN(C)C)c1 (centres unmarked) [Example 4, 6,7-dichloro-3-oxo-3,4-dihydroquinoxaline 2-carboxylic acid [3′-(N,N-dimethylaminomethyl)-4′-hydroxy-4′-(m-methoxyphenyl)-cyclohexyl] ester] | 84% | 175 to 177 °C
